Assay results taken from US20070088024A1, “Active substance combination comprising a carbinol combined to at least an NSAID” (LABORATORIOS DEL DR. ESTEVE S.A., priority 2004, published 2007).

Columns and labels:
male Swiss albino mice [1] = experiment: Writhing test in mice (phenylbenzoquinone-induced writhing reactions); assay type: in vivo; conditions: for % Activity (inhibition of the writhing reactions): 60 minutes prior to phenylbenzoquinone; for ED50: p.o., in mg/kg
Description: (§1) The Writhing test for the determination of the analgesic activity of the inventive active substance combination is carried out according to the method described in the publication of E. Siegmund et al., Proc. Soc. Exp. Biol. Med. 1957, 95, 729-731 using male Swiss albino mice (20-25 g body weight, obtained from Harlan, S. Feliu de Codinas, Spain). The respective part of the description is hereby incorporated by reference and forms part of the respective disclosure.
The Writhing reactions are induced by intraperitoneal injection of phenylbenzoquinone (25 ml/kg in a 0.02% (volume/volume) ethanolic solution in a 5% (volume/volume) solution in destillated water with Evan's blue in an amount of 0.1% weight/volume) and the writhing reactions are counted during a 15 minute period following the injection. The substances to be tested are orally administered 60 minutes prior to the injection of the phenylbenzoquinone solution. The percentage of the inhibition of the writhing reactions is calculated on the basis of the control group as basis for 0% inhibition.

male Swiss albino mice [2] = experiment: Formaline test in mice; assay type: in vivo; conditions: 40 mg/kg i.p.
Description: as §1, with “Formaline” for “Writhing”, “T. Ohkubo” for “E. Siegmund”, “J. Pharmacol.” for “Proc. Soc.”, “Ther. 1990, 252, 1261-1268” for “Biol. Med. 1957, 95, 729-731”
The substances to be tested are intraperitoneally administered to the mice in 5% by weight solution of arabic gum in destined water as vehicle. 15 minutes later 20 μl of a 5% by weight solution of formaline in saline solution is injected into the back of the right paw of the animals. The total time in seconds of licking and/or biting the injected paw is registered in the acute phase, i.e. 0-5 minutes (phase I), and in the chronic phase, i.e. 15-30 (phase II), minutes after injection of the formaline.
The percentage of inhibition is calculated based on the medium values of the acute and chronic phases of the control group as 0% inhibition of the primary and secondary response.

Row | SMILES | % Activity (inhibition of the writhing reactions) (male Swiss albino mice [1]; 40 mg/kg p.o.) | % Activity (inhibition of the writhing reactions) (male Swiss albino mice [1]; 80 mg/kg p.o.) | % Activity (inhibition of the writhing reactions) (male Swiss albino mice [1]; 160 mg/kg p.o.) | ED50 (male Swiss albino mice [1]) | % Activity Phase I (male Swiss albino mice [2]; acute phase 0-5 minutes) | % Activity Phase II (male Swiss albino mice [2]; chronic phase 15-30 minutes)
1 | CN(C)CCO[C@@H](c1ccccc1)c1ccnn1C.COc1ccc2cc([C@H](C)C(=O)O)ccc2c1 [S-(−)-Cizolirtine naproxenate, S-(−)-5-[α-[2-(Dimethylamino)ethoxy]benzyl]-1-methyl-1H-pyrazole naproxenate] | 26.7% | 52.4% | 68.5% | 82.15 |  | 
2 | CN(C)CCO[C@H](c1ccccc1)c1ccnn1C.COc1ccc2cc([C@H](C)C(=O)O)ccc2c1 [R-(+)-Cizolirtine naproxenate, R-(+)-5-[α-[2-(Dimethylamino)ethoxy]benzyl]-1-methyl-1H-pyrazole naproxenate] | 32.0% | 52.0% | 77.3% | 71.29 | 49% | 36%
3 | CC(C)Cc1ccc([C@H](C)C(=O)O)cc1.CN(C)CCO[C@H](c1ccccc1)c1ccnn1C [R-(+)-Cizolirtine ibuprofenate, R-(+)-5-[α-[2-(Dimethylamino)ethoxy]benzyl]-1-methyl-1H-pyrazole S-(+)-ibuprofenate] | 15.9% | 45% | 80.9% | 84.8 |  | 
4 | CN(C)CCO[C@@H](c1ccccc1)c1ccnn1C [S-(−)-Cizolirtine, S-(−)-5-[α-[2-(Dimethylamino)ethoxy]benzyl]-1-methyl-1H-pyrazole] | 29.0% | 49.7% | 59.7% | 95.26 |  | 
5 | CN(C)CCO[C@H](c1ccccc1)c1ccnn1C.O=C(O)Cc1ccccc1Nc1c(Cl)cccc1Cl [R-(+)-Cizolirtine diclofenacate, R-(+)-5-[α-[2-(Dimethylamino)ethoxy]benzyl]-1-methyl-1H-pyrazole diclofenacate] | 14.7% | 57.3% | 72.1% | 84 |  | 
